From patent US20230301299A1, “DISINFECTING FORMULATIONS WITH CARVACROL” (priority 2022, published 2023)

Key:
[1] = system: Staphylococcus aureus; test: minimum inhibitory concentration test (normalized T0, growth after neutralisation); format: cell-based; conditions: for inhibitory effect (normalized T0, lower = increased inhibitory effect): FIG. 1, 0.5% essential oil compound, 5 minute contact time, 24 hour growth
Experimental: Various essential oil compounds were evaluated in a minimum inhibitory concentration test (e.g., against Staphylococcus aureus), to evaluate the inhibiting characteristics of the various tested compounds. […] Each candidate essential oil compound active was tested at 0.5% concentration, with 1% sodium lauryl sulfate (SLS), with a 5 minute contact time. As those of skill in the art will appreciate, the testing was conducted following EPA microbiology efficacy protocols, where the candidate active to be tested is applied to an inoculum (e.g., Staphylococcus aureus), and after a given contact time (e.g., 5 minutes), the active being tested is neutralized (e.g., with growth media), and the treated inoculum is allowed to grow out over a period of 24 hours. After the 24 hour growth period, an automated plate reader is used to measure inoculum growth, and the results are tabulated, relative to a control standard, which was not contacted with any active. Such testing therefore allows determination of which candidate actives provide for an inhibitory effect relative to a target microbe, as well as information relative to which candidate actives may be better than others.
Based on the results seen in FIG. 1, carvacrol was identified as a good candidate for further study. […] All tested samples included 1% SLS, with 0.5% of the shown co-surfactant, and 0.2% of the shown essential oil compound, with the results averaged over 3 contact times of 5, 15, and 30 minutes. […] For example, the amine oxide, sophorolipid, alkylpolyglycoside, and alcohol ethoxylate show such results, particularly in combination with carvacrol. For this reason, such surfactants may be avoided, in at least some embodiments of the present invention.
All tested samples included 1.5% SLS as the primary surfactant, with 1% of the shown essential oil compound, and 1% of the tested co-surfactant.
In particular, FIG. 5 plots change in T0 (ΔT0) compared to carvacrol as used alone (i.e. with no secondary essential oil compound).

[2] = system: Staphylococcus aureus; test: log reduction, EPA germicidal spray test (GST) / OECD quantitative method; format: cell-based; conditions: FIG. 7; 1% SLS, 0.5% second alkyl sulfate, 0.4% silicate buffer, 0.25% chelating agent, carvacrol 0.2% up to 1%; 3 and 5 minute contact times
Experimental: Tests were performed under standards promulgated by the EPA (e.g., the EPA's germicidal spray test “GST”) and the OECD (e.g., the Organization for Economic Co-Operation and Development). The OECD standards include an evaluation of the tested compositions ability to work in an environment where the target surface being cleaned includes soiling. The GST test is carried out according to the EPA's Standard Operating Procedure for Germicidal Spray Products as Disinfectants (GSPT): Testing of Staphylococcus aureus, Pseudomonas aeruginosa, and Salmonella enterica, published under SOP MB-06-09, which is herein incorporated by reference in its entirety. Such is available at https://www.epa.gov/sites/default/files/2018-01/documents/mb-06-09,pdf. The OECD test is carried out according to the EPA's Standard Operating Procedure for OECD Quantitative Method for Evaluating Bactericidal and Mycobactericidal Activity of Microbicides Used on Hard, Non-Porous Surfaces, published under SOP MB-25-05, which is herein incorporated by reference in its entirety. Such is available at https://www.epa.gov/sites/default/files/2019-05/documents/mb-25-05.pdf.

[3] = FIG. 2, 1% SLS, 0.5% co-surfactant, 0.2% essential oil compound, averaged over contact times of 5, 15 and 30 minutes

Compound | inhibitory effect (normalized T0, lower = increased inhibitory effect) ([1]; 1% SLS) | inhibitory effect (normalized T0) ([1]; FIG. 3, 1.5% SLS, 1% essential oil compound, 1% co-surfactant) | log reduction against Staphylococcus aureus [2] | inhibitory effect (normalized T0) [1, 3]
Cc1ccc(C(C)C)cc1O [carvacrol] | best inhibitory effect | lowest T0 values | increased log reduction with increasing carvacrol concentration | –
Cc1ccc(C(C)C)c(O)c1 [thymol, reference compound] | some inhibitory effect | – | – | –
alcohol ethoxylate | – | – | – | opposite of an inhibitory effect
alkylpolyglycoside | – | – | – | opposite of an inhibitory effect
sophorolipid | – | – | – | opposite of an inhibitory effect
